# Reference: ChEMBL document CHEMBL4229359, “Simple 2(5H)-furanone derivatives with selective cytotoxicity towards non-small cell lung cancer cell line A549 - Synthesis, structure-activity relationship and biological evaluation” (Eur J Med Chem, 2018)
# pIC50: −log10 of the molar value. Active and inactive are the calls of the source. The calls are words filed in the database; no cut-off is given here.
# Assays:
# A549 [1] = assay: Effect on Pro-caspase-3 protein expression in human A549 cells at 20 uM after 72 hrs by densitometric analysis; assay type: functional, cell-based
# PC-3 = assay: Cytotoxicity against human PC3 cells assessed as reduction in cell viability after 72 hrs by MTT assay; assay type: functional, cell-based; settings: PC-3, 72 h
# A549 [2] = assay: Cell cycle arrest in human A549 cells assessed as accumulation at G1-phase at 20 uM after 72 hrs by propidium iodide staining based flow cytometry (reference value: 61.5%); assay type: functional
# A549 [3] = assay: Cell cycle arrest in human A549 cells assessed as accumulation at G2/M-phase at 10 uM after 72 hrs by propidium iodide staining based flow cytometry (reference value: 6.3 to 7.2%); assay type: functional
# SJSA-1 = assay: Cytotoxicity against human SJSA1 cells assessed as reduction in cell viability after 72 hrs by MTT assay; assay type: functional, cell-based; settings: SJSA-1, 72 h
# A549 [4] = assay: Synergistic cytotoxicity against human A549 cells assessed as reduction in cell viability at 10 uM after 72 hrs in presence of 5 to 20 uM erlotinib by MTT assay; assay type: functional, cell-based
# BEAS-2B = assay: Cytotoxicity against human BEAS2B cells assessed as reduction in cell viability after 72 hrs by MTT assay; assay type: cell-based
# A549 [5] = assay: Cell cycle arrest in human A549 cells assessed as accumulation at S-phase at 10 uM after 72 hrs by propidium iodide staining based flow cytometry (reference value: 16.8 to 18.5%); assay type: functional
# LoVo = assay: Cytotoxicity against human LoVo cells assessed as reduction in cell viability after 72 hrs by MTT assay; assay type: functional, cell-based
# A549 [6] = assay: Synergistic anticlonogenic activity against human A549 cells at 10 uM after 72 hrs in presence of 10 uM erlotinib by crystal violet staining based microscopic method; assay type: functional
# U2OS = assay: Cytotoxicity against human U2OS cells assessed as reduction in cell viability after 72 hrs by MTT assay; assay type: functional, cell-based
# A549 [7] = assay: Anticlonogenic activity against human A549 cells assessed as colony formation at 10 uM after 72 hrs by crystal violet staining based microscopic method relative to control; assay type: functional
# A549 [8] = assay: Cell cycle arrest in human A549 cells assessed as accumulation at G2/M-phase at 20 uM after 72 hrs by propidium iodide staining based flow cytometry (reference value: 6.7%); assay type: functional
# Hep 3B2 = assay: Cytotoxicity against human Hep3B cells assessed as reduction in cell viability after 72 hrs by MTT assay; assay type: functional, cell-based
# A549 [9] = assay: Cell cycle arrest in human A549 cells assessed as accumulation at S-phase at 20 uM after 72 hrs by propidium iodide staining based flow cytometry (reference value: 31.9%); assay type: functional
# A549 [10] = assay: Effect on Bcl2 protein expression in human A549 cells at 20 uM after 72 hrs by densitometric analysis; assay type: functional, cell-based
# HepG2 = assay: Cytotoxicity against human HepG2 cells assessed as reduction in cell viability after 72 hrs by MTT assay; assay type: functional, cell-based; settings: HepG2, 72 h
# A549 [11] = assay: Cell cycle arrest in human A549 cells assessed as accumulation at G2/M-phase at 10 uM after 24 hrs by propidium iodide staining based flow cytometry (reference value: 6.5%); assay type: functional
# A549 [12] = assay: Synergistic cell cycle arrest in human A549 cells assessed as accumulation at G1-phase at 10 uM after 72 hrs in presence of 10 uM erlotinib by propidium iodide staining based flow cytometry (reference value: 76%); assay type: functional
# A549 [13] = assay: Effect on cleaved caspase-3 protein expression in human A549 cells at 20 uM after 72 hrs by densitometric analysis; assay type: functional, cell-based
# A549 [14] = assay: Cytotoxicity against human A549 cells assessed as reduction in cell viability after 72 hrs by MTT assay; assay type: functional, cell-based; settings: A549, 72 h
# A549 [15] = assay: Downregulation of Cyclin-B1 protein expression in human A549 cells at 10 uM after 72 hrs by Western blot analysis; assay type: functional, cell-based
# HT-29 = assay: Cytotoxicity against human HT-29 cells assessed as reduction in cell viability after 72 hrs by MTT assay; assay type: functional, cell-based; settings: HT-29, 72 h
# A549 [16] = assay: Induction of apoptosis in human A549 cells assessed as caspase-3 cleavage at 20 uM after 72 hrs by Western blot analysis; assay type: functional, cell-based
# A549 [17] = assay: Induction of apoptosis in human A549 cells assessed as early apoptotic cells at 20 uM after 72 hrs by Annexin V-FITC/propidium iodide staining based flow cytometry (reference value: 0.4%); assay type: functional
# A549 [18] = assay: Effect on Bax protein expression in human A549 cells at 20 uM after 72 hrs by densitometric analysis; assay type: functional, cell-based
# [19] = Selectivity index, ratio of IC50 for human BEAS2B cells to IC50 for human A549 cells; assay type: toxicity
# A549 [20] = assay: Synergistic cell cycle arrest in human A549 cells assessed as accumulation at G2/M-phase at 10 uM after 72 hrs in presence of 10 uM erlotinib by propidium iodide staining based flow cytometry (reference value: 7.2%); assay type: functional
# A549 [21] = assay: Induction of apoptosis in human A549 cells assessed as necrotic cells at 20 uM after 72 hrs by Annexin V-FITC/propidium iodide staining based flow cytometry (reference value: 0.6%); assay type: functional
# MCF7 = assay: Cytotoxicity against human MCF7 cells assessed as reduction in cell viability after 72 hrs by MTT assay; assay type: functional, cell-based; settings: MCF7, 72 h
# HCT-116 [22] = assay: Cytotoxicity against human HCT116 cells assessed as reduction in cell viability after 72 hrs by MTT assay; assay type: functional, cell-based; settings: HCT-116, 72 h
# A549 [23] = assay: Induction of mitosis in human A549 cells at 10 uM after 24 hrs by DAPI staining based fluorescence microscopic method; assay type: functional, cell-based
# A549 [24] = assay: Cell cycle arrest in human A549 cells assessed as accumulation at S-phase at 10 uM after 24 hrs by propidium iodide staining based flow cytometry (reference value: 34.1%); assay type: functional
# A549 [25] = assay: Synergistic cell cycle arrest in human A549 cells assessed as accumulation at S-phase at 10 uM after 72 hrs in presence of 10 uM erlotinib by propidium iodide staining based flow cytometry (reference value: 16.8%); assay type: functional
# A549 [26] = assay: Induction of apoptosis in human A549 cells assessed as late apoptotic cells at 20 uM after 72 hrs by Annexin V-FITC/propidium iodide staining based flow cytometry (reference value: 0.5%); assay type: functional
# A549 [27] = assay: Effect on Bad protein expression in human A549 cells at 20 uM after 72 hrs by densitometric analysis; assay type: functional, cell-based
# A549 [28] = assay: Anticlonogenic activity against human A549 cells assessed as colony formation at 5 uM after 72 hrs by crystal violet staining based microscopic method relative to control; assay type: functional
# A549 [29] = assay: Anticlonogenic activity against human A549 cells at 10 uM after 72 hrs by crystal violet staining based microscopic method relative to control; assay type: functional
# A549 [30] = assay: Induction of apoptosis in human A549 cells assessed as live cells at 20 uM after 72 hrs by Annexin V-FITC/propidium iodide staining based flow cytometry (reference value: 98.5%); assay type: functional
# A549 [31] = assay: Effect on Bcl-x protein expression in human A549 cells at 20 uM after 72 hrs by densitometric analysis; assay type: functional, cell-based
# A549 [32] = assay: Cell cycle arrest in human A549 cells assessed as accumulation at G1-phase at 10 uM after 72 hrs by propidium iodide staining based flow cytometry (reference value: 75.2 to 76%); assay type: functional
# HCT-116 [33] = assay: Cytotoxicity against p53-/- human HCT116 cells assessed as reduction in cell viability after 72 hrs by MTT assay; assay type: functional, cell-based; settings: HCT-116, 72 h
# DU-145 = assay: Cytotoxicity against human DU145 cells assessed as reduction in cell viability after 72 hrs by MTT assay; assay type: functional, cell-based; settings: DU-145, 72 h
# A549 [34] = assay: Induction of apoptosis in human A549 cells at 20 uM after 72 hrs by Annexin V-FITC/propidium iodide staining based flow cytometry relative to control; assay type: functional
# A549 [35] = assay: Cell cycle arrest in human A549 cells assessed as accumulation at G1-phase at 10 uM after 24 hrs by propidium iodide staining based flow cytometry (reference value: 59.4%); assay type: functional
smiles,measurement,setting,value
CC(C)OC1OC(=O)C(Cl)=C1Cl (stereo not given),Activity,A549 [1],inactive
same,pIC50,PC-3,5.32
same,Activity,A549 [2],48%
same,Activity,A549 [3],12.5 - 13.9%
same,pIC50,SJSA-1,5.11
same,Activity,A549 [4],inactive
same,pIC50,BEAS-2B,4.56
same,Activity,A549 [5],19.3 - 26.2%
same,pIC50,LoVo,5.55
same,Activity,A549 [6],89%
same,pIC50,U2OS,4.68
same,Activity,A549 [7],15%
same,Activity,A549 [8],4.7%
same,pIC50,Hep 3B2,4.70
same,Activity,A549 [9],47.3%
same,Activity,A549 [10],inactive
same,pIC50,HepG2,4.77
same,Activity,A549 [11],23.4%
same,Activity,A549 [12],51.4%
same,Activity,A549 [13],inactive
same,pIC50,A549 [14],5.17
same,Activity,A549 [15],Active
same,pIC50,HT-29,5.14
same,Activity,A549 [16],inactive
same,Activity,A549 [17],6.5%
same,Activity,A549 [18],inactive
same,log(RatioIC50),[19],0.61
same,Activity,A549 [20],16.6%
same,Activity,A549 [21],3.9%
same,pIC50,MCF7,4.91
same,pIC50,HCT-116 [22],5.14
same,Activity,A549 [23],inactive
same,Activity,A549 [24],36.6%
same,Activity,A549 [25],31.9%
same,Activity,A549 [26],25.7%
same,Activity,A549 [27],inactive
same,Activity,A549 [28],40%
same,Activity,A549 [29],86%
same,Activity,A549 [30],63.9%
same,Activity,A549 [31],inactive
same,Activity,A549 [32],59.9 - 68.2%
same,pIC50,HCT-116 [33],5.17
same,pIC50,DU-145,4.60
same,fold change (FC),A549 [34],36
same,Activity,A549 [35],40%
